Assay results reported in publication PMC8689140 (Frontiers in Pharmacology, 2021).

Key:
[1] = system: VMAT2; design: method as in Skor et al., 2017; Stahl, 2018; settings: Figure 1A ref Skor et al., 2017; Stahl, 2018; cited from earlier work
[2] = design: method as in Skor et al., 2017; Stahl, 2018; settings: Figure 1A ref Skor et al., 2017, Stahl, 2018, cited from earlier work; for Plasma Leval (DTBZ): share of HTBZ isomers after deutetrabenazine; for Plasma Leval (TBZ): share of HTBZ isomers after tetrabenazine
[3] = Metabolite identification in human liver microsomes; format: in vitro ADME
Method: (§1) Human, rat and dog liver microsomes were carefully thawed on ice prior to the experiment and diluted to 1 mg/ml in100 mM sodium phosphate buffer (pH 7.4) containing 10 mM magnesium chloride. […] After 3 min of preincubation at 37°C, the reactions were initiated by adding 20 µL of NADPH (20 mM) and then incubated at 37°C in a shaking water bath for 60 min. All samples were prepared in duplicates. The reactions were terminated by adding 600 µl of ice-cold acetonitrile and stored at −20°C until analysis. Control samples without NADPH and 0-time point samples were included. As a positive control, testosterone (10 µM) which was metabolized to produce the hydroxylation metabolite was used as a substrate to confirm the activity of the incubation system. Next, the samples were centrifuged at 13,000 rpm for 10 min, the supernatant was separated and evaporated to dryness under a nitrogen stream. The residue was resuspended in 100 μl of acetonitrile, after centrifugation, the supernatants were analyzed by UPLC–UV-HRMS.
(§2) The analysis was performed on Acquity UPLC system coupled with a diode array detector (Waters Corporation, United States) and Q Exactive™ Orbitrap HRMS (Thermo Electron Corporation, United States). […]
(§3) HRMS were operated at positive ion mode using a heating electrospray ionization source (HESI). […] The metabolites were detected by full MS/dd-MS^2 analysis from m/z 100 to m/z 1,000. […]

[4] = Metabolite identification in dog liver microsomes; format: in vitro ADME
Method: as §1, §2, §3

[5] = Metabolite identification in rat liver microsomes; format: in vitro ADME; settings: NADPH, 60 min
Method: as §1, §2, §3

[6] = Metabolite identification in liver microsomes from humans, dogs and rats (stated across species); format: in vitro ADME, human, dog, rat; settings: range or bound across the three species
Method: as §1, §2, §3

[7] = system: T1, CYP3A4; assay: P450 phenotyping, chemical inhibitors in HLMs, CYP3A4; format: in vitro ADME, human; settings: CYP3A4 probe substrate, 2 µM, specific inhibitor
T1 construct: tissue Corning Co., Ltd (Shanghai, China); host or cells: human liver microsomes
Method: (§4) According to the result of metabolite identification, three metabolites were selected as the targets for metabolic phenotyping. Seven CYP isozymes (CYP1A2, CYP2B6, CYP2C8, CYP2C9, CYP2C19, CYP2D6, and CYP3A4) were investigated using two kinds of methods: chemical inhibitors in human liver microsomes (HLMs) method (Experiment 1) and rhCYP isozymes method (Experiment 2).
(§5) Experiment 1: HLMs were thawed on ice and diluted in100 mM sodium phosphate buffer (pH 7.4) containing 3 mM magnesium chloride. […] After 10 min of preincubation at 37°C, the reactions were initiated by adding 20 µL of NADPH (10 mM) and then incubated at 37 °C in a shaking water bath for 30 min. The samples were prepared in triplicates. The reactions were terminated by adding 600 µL of ice-cold acetonitrile and stored at −20°C until analysis. Control samples without NADPH and 0-time point samples were included. As positive controls, the probe substrates of each P450 isozyme under the same conditions were tested, and specific inhibitors was added. Next, the samples were centrifuged at 13,000 rpm for 10 min, the supernatants were determined by LC–MS/MS.

[8] = system: T2, rhCYP CYP3A4; assay: P450 phenotyping, rhCYP isozymes, CYP3A4; format: in vitro ADME, human; settings: rhCYP3A4 probe substrate, 0.4 µM
T2 construct: purchased Corning Co., Ltd (Shanghai, China)
From the text: as §4
(§6) Experiment 2: Each rhCYP isozyme was thawed and diluted as above method. As positive controls, the probe substrates of each P450 isozyme were tested under the same conditions. […] Vx ([…]) is the production rate of metabolites for each rhCYP isozyme.

[9] = Metabolite identification in dog plasma after oral dose; format: in vivo; settings: pooled dog plasma after single oral dose of (+)-13e at 3 μmol/kg
Method: (§7) Male beagle dogs were randomly divided into four groups. […] The dogs were fasted for 12 h before treatment and 4 h after treatment, but they were granted free access to water. Blood was collected from the vein before administration and 0.083 (only for injection groups), 0.25, 0.5, 1, 2, 3, 4, 6, 8, 12 and 24 h, and placed it in heparinized tubes, and centrifuged it at 8,000 rpm for 10 min at 4°C to separate the plasma, which we stored at −20 °C until analysis. The plasma samples were pretreated by protein precipitation with acetonitrile and quantitated by the validated LC-MS/MS (Shimadzu Exion-Triple Quad 4500) method.
Then, four volumes of acetonitrile (containing 0.1% formic acid) were added into the pooled plasma samples to precipitate the proteins. After vortex-mixing and centrifugation, the supernatants were dried under a nitrogen stream. Then, the residues were resuspended in 100 μl of acetonitrile/water (1:1, v/v) with 0.1% formic acid. After centrifugation, the supernatants were analyzed by UPLC–UV-HRMS for metabolite identification.
The analysis was performed on Acquity UPLC system coupled with a diode array detector (Waters Corporation, United States) and Q Exactive™ Orbitrap HRMS (Thermo Electron Corporation, United States). […] The mobile phase was composed water containing 0.1% formic acid (A) and acetonitrile containing 0.1% formic acid (B). The flow rate was 0.40 ml/min. The elution conditions were the following linear gradient for metabolite identify in HLMs: 0–1 min: 95% A, 1–2 min: 80% A, 2–5 min: 80% A, 5–8 min: 70% A, 8–12 min: 30% A, 12–15 min: 5% A, 15–16 min: 95% A, and 16–18 min: 95% A. The elution conditions were the following for metabolite identify in dog plasma: 0–1 min: 95% A, 1–30 min: 70% A, 30–32 min: 30% A, 32–33 min: 5% A, 33–35 min: 95% A, and 35–40 min: 95% A.
HRMS were operated at positive ion mode using a heating electrospray ionization source (HESI). The optimized operating parameters were set as follows: sheath gas (nitrogen) flow rate of 35 psi, aux gas (nitrogen) flow rate of 10 psi, HESI and capillary temperature of 350°C, and spray voltage of 3.5 kV. The metabolites were detected by full MS/dd-MS^2 analysis from m/z 100 to m/z 1,000. The resolution of the first-class scan and second-class scan was 70 000 and 17 500, respectively. The collision energy for collision induced dissociation (NCE) was set to 20, 40 and 60 eV. The loop count was set to five and the dynamic exclusion duration to 10 s. […] Thermo Compound Discover software was used to identify expected and unknown metabolites, and we finally proposed (+)-13e metabolic pathways based on the deduced metabolites and relevant drug biotransformation knowledge.

[10] = system: T3, CYP2D6; assay: P450 phenotyping, chemical inhibitors in HLMs, CYP2D6; format: in vitro ADME, human; settings: CYP2D6 probe substrate, 5 µM, specific inhibitor
T3 construct: tissue Corning Co., Ltd (Shanghai, China); host or cells: human liver microsomes
Method: as §4, §5

[11] = system: T4, rhCYP CYP2D6; assay: P450 phenotyping, rhCYP isozymes, CYP2D6; format: in vitro ADME, human; settings: rhCYP2D6 probe substrate, 1 µM
T4 construct: purchased Corning Co., Ltd (Shanghai, China)
From the text: as §4, §6

[12] = target: T5, rat VMAT2 (Rattus norvegicus, UniProt Q01827); assay: [3H]DA uptake assay in rat striatal synaptosomes; format: biochemical; settings: [3H]DA uptake, rat striatal synaptosomes
T5 construct: in vitro [^3H]DA uptake assay in rat striatal synaptosomes; from tissue; host or cells: rat striatal synaptosomes / vesicular suspension
Method: [^3H]DA (dihydroxyphenylethyethylamine, 3,4-[ring-2,5,6-^3H]; specific activity, 28.0 Ci/mmol) was purchased from Perkin Elmer. […] After drying, the filter plate was sealed with unifilter-96 back sealing tape and added 50 μl of microscint-20 (Perkin Elmer), then sealed the top of the filter plate with TopSeal-A. The radioactivity was measured by a TopCount scintillation counter. GraphPad Prism 5.0 was used to analyze data.

[13] = system: VMAT2; design: method as in Yang et al., 2021; settings: previous study ref Yang et al., 2021; read-out: affinity for VMAT2 IC50; cited from earlier work
[14] = design: method as in Yang et al., 2021; settings: SD rats, oral administration at an equimolar dose, previous study ref Yang et al., 2021; cited from earlier work
[15] = system: locomotor activity of rats; assay: Dose-dependent effects on locomotor activity in rats; format: in vivo, rat; settings: SD rats, single oral gavage 5.2 μmol/kg, 0.5-[…] after dosing
Method: Before administration, animals were transported to the test room and allowed to acclimate for at least 1 h. Immediately after drug administration, rats were placed into activity chambers to assess their basal locomotor activity using the TopScan monitoring system. The total travel distance was recorded from 0.5 to 1.5 h after administration in intervals of 10 min.

[16] = PK in dogs after single oral or intravenous dose; format: in vivo, dog; settings: dog
Method: as §7
The system consisted of an Exion UHPLC system (Shimadzu, Japan) and a Triple Quad 4500 mass spectrometer (AB Sciex, United States) with an electrospray ionization source. Multiple reaction monitoring in the positive ionization mode was applied to measure analytes. Chromatographic separation was performed on a Acquity BEH C18 column (50 × 2.1 mm i. d., 1.7 μm, Waters, United States). The mobile phase was composed of 0.1% FA in water (A) and 0.1% FA in acetonitrile (B), and the flow rate was 0.4 ml/min. The elution conditions were the following linear gradient: 0–0.4 min: 90% A, 0.4–0.6 min: 60% A, 0.6–1.2 min: 10% A, 1.2–2.2 min: 10% A, 2.2–2.3 min: 90% A, 2.3–3.0 min: 90% A. The optimized parameters were as follows: the spray voltage 5.5 kV, source temperature 550 °C, pressure of source gas 1 and gas 2: 55psi, pressure of curtain gas: 30psi, and the DP, EP and CE voltage was 30,6 and 40 eV, respectively.

[17] = no peak in UV, abundance by mass spectrometry

T5 sequence (Q01827 whole entry): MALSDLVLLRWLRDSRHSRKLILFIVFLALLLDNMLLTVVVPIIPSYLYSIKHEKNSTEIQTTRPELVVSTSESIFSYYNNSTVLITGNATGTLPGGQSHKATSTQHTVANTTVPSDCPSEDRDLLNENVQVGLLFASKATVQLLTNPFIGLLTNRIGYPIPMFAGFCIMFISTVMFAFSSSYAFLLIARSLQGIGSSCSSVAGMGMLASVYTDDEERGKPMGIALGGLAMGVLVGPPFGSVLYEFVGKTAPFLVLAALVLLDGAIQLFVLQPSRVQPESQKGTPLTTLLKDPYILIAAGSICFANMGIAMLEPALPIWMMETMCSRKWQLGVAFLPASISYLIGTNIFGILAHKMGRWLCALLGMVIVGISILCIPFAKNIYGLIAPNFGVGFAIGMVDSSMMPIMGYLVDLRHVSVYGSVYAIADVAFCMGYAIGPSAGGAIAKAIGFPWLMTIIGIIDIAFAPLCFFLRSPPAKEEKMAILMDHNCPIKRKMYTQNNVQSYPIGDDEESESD

COc1cc2c(cc1OC)[C@H]1C[C@@H](O)[C@H](CC(C)C)CN1CC2 [HTBZ, (+)-α-dihydrotetrabenazine]
VMAT2 affinity [1]: High | Plasma Leval (DTBZ) [2]: 1.7% | Plasma Leval (TBZ) [2]: 1.8%

CC(C)CC1CN2CCc3cc(OCC(F)(F)F)c(O)cc3C2CC1O (stereo not shown) [M373]
Relative abundance Human (*detected by mass spectrometry) [3, 17]: 0.69^* % | Relative abundance Dog (*detected by mass spectrometry) [4, 17]: 0.46^* % | Relative abundance, UV area % Rat [5]: 2.6% | relative abundance in liver microsomes from humans, dogs, and rats [6]: less than 3.2%

Cc1ncc2n1-c1ccc(Cl)cc1C(c1ccccc1F)=NC2 [Midazolam]
%Inhibation in HLM [7]: 84.7% | CL int in rhCYP [8]: 9.13 µL/min/pmol

COc1cc2c(cc1OC)[C@H]1C[C@H](O)[C@H](CC(C)C)CN1CC2 [[+]-β-HTBZ]
VMAT2 affinity [1]: High | Plasma Leval (DTBZ) [2]: 43.8% | Plasma Leval (TBZ) [2]: 37.2%

COc1cc2c(cc1OC)[C@@H]1C[C@H](O)[C@@H](CC(C)C)CN1CC2 [[-]-α-HTBZ]
VMAT2 affinity [1]: Low | Plasma Leval (DTBZ) [2]: 48.3% | Plasma Leval (TBZ) [2]: 55.6%

COc1cc2c(cc1OCC(F)(F)F)CCN1CC(CC(C)(C)O)C(O)CC21 (stereo not shown) [M403-2]
Relative abundance, UV area % Human ([3]; NADPH, 60 min, UV area): 12.11% | Relative abundance, UV area % Dog ([4]; NADPH, 60 min, UV area): 10.01% | Relative abundance, UV area % Rat [5]: 8.78% | Relative abundance UV area % in dog plasma [9]: 9.69%

COc1ccc2c(c1)[C@]13CCCC[C@@H]1[C@H](C2)N(C)CC3 [Dextromethorphan]
%Inhibation in HLM [10]: 90.7% | CL int in rhCYP [11]: 13.1 µL/min/pmol

COc1cc2c(cc1OC)C1CC(=O)C(CC(C)C)CN1CC2 (stereo not shown) [TBZ, tetrabenazine, reference compound]
IC90 [12]: 96.9 nM

COc1cc2c(cc1OC)[C@@H]1C[C@@H](O)[C@@H](CC(C)C)CN1CC2 [[-]-β-HTBZ]
VMAT2 affinity [1]: Low | Plasma Leval (DTBZ) [2]: 6.2% | Plasma Leval (TBZ) [2]: 5.4%

COc1cc2c(cc1OCC(F)(F)F)CCN1C[C@@H](CC(C)(C)OC3OC(C(=O)O)C(O)C(O)C3O)[C@H](O)C[C@H]21 (stereo partly shown) [M579-1]
Relative abundance UV area % in dog plasma [9]: 3.43%

COc1cc2c(cc1OCC(F)(F)F)CCN1CC(CC(C)C)C(OC3OC(C(=O)O)C(O)C(O)C3O)CC21 (stereo not shown) [M563]
Relative abundance UV area % in dog plasma [9]: 9.92%

CC(C)(O)C[C@@H]1CN2CCc3cc(OCC(F)(F)F)c(OC4OC(C(=O)O)C(O)C(O)C4O)cc3[C@H]2C[C@H]1O (stereo partly shown) [M565]
Relative abundance UV area % in dog plasma [9]: 10.2%

CC(C)C[C@@H]1CN2CCc3cc(OCC(F)(F)F)c(OC4OC(C(=O)O)C(O)C(O)C4O)cc3[C@H]2C[C@H]1O (stereo partly shown) [M549]
Relative abundance UV area % in dog plasma [9]: 7.47%

COc1cc2c(cc1OCC(F)(F)F)CCN1CC(CC(C)C)C(O)CC21 (racemic) [13e, 3-isobutyl-10-methoxy-9-(2,2,2-trifluoroethoxy)-1,3,4,6,7,11b-hexahydro-2H-pyrido [2,1-a]isoquinolin-2-ol]
IC50 [13]: 5.13 nM | concentration in the brain higher than that of HTBZ [14]: 2 fold

COc1cc2c(cc1OC)[C@H]1C[C@@H](OC(=O)[C@@H](N)C(C)C)[C@H](CC(C)C)CN1CC2 [VBZ, Valbenazine ditosylate, reference compound]
reduction rate (RR) of locomotion [15]: 97.9% | V, V/F ([16]; single intravenous dose 0.6 μmol/kg): 2.8 ± 0.5 L/kg | clearance ([16]; single intravenous dose 0.6 μmol/kg, read-out: Cl, Cl/F (converted)): 6 mL/min/kg | V, V/F ([16]; single oral dose 3 μmol/kg): 3.5 ± 0.8 L/kg | bioavailability ([16]; male, beagle, plasma, dogs, oral 3 μmol/kg vs intravenous 0.6 μmol/kg, read-out: absolute oral bioavailability): 74.1% | CL/F ([16]; male, beagle, plasma, 3 umol/kg, single oral dose 3 μmol/kg): 8 mL/min/kg
